Results on 3 compounds are retold here after patent publication US5922756A, “Method of inhibiting nitric oxide synthase” (priority 1998, dated 1999).

Each structure is given as a SMILES string. Where two headings read alike, the source gives them in different places.

One test addresses T1, Murine iNOS (Mus musculus, UniProt P29477).
T1 construct: purchased Cayman
Description: Citrulline assay for iNOS enzyme activity ([3H]arginine to [3H]citrulline). Type of test: biochemical. Conditions: for remaining activity at 800 µM: read-out: citrulline formation (% of control). The method, then:
Murine iNOS was extracted from the RAW 264.7 murine macrophages (from the American Type Culture Collection). The cells were stimulated with 20 units/mL cf IFNγ and 0.5 μg/mL LPS, incubated for 4 hr, and then harvested. The washed cells were lysed in 50 mM MOPS buffer (pH 7.0) which contained 1 mM EGTA, 100 mM NaCl, 0.1% 3-[(3-cholamidopropl)dimethylammonio]-2-hydroxy-1-propanesulfonate (CHAPSO), 0.2 mM phenylmethylsulfonyl fluoride, […], and 1 mM leupeptin. After passing through Sephadex G-100 (Pharmacia) to remove arginine, NADPH, and unbound tetrahydrobiopterin, the supernatant was concentrated by ultrafiltration using Centricon 30 microconcentrators (Amicon) (Forstermann et al. 1994; Wolff and Gribin 1994). Murine iNOS, 100,000 g fraction, was also purchased from Cayman.
(§1) Enzyme inhibition studies for iNOS were conducted in 50 mM HEPES buffer (pH 7.4) containing 1 mM calcium chloride, 1 mM magnesium acetate and […]. [^3 H]arginine (New England Nuclear), tetrahydrobiopterin (Biomol), and EGCG were added at the indicated concentrations. Reactions were terminated by the addition of AG 50WX8 resin (Bio-Rad) in HEPES-EDTA buffer (pH 5.5). Enzyme activity was measured by monitoring the conversion of [^3 H]arginine to [^3 H]citrulline (Hevel and Marletta 1994). Reactions were allowed to occur at 37° C. for 10-20 min since time-course analyses had shown that the reaction was linear under these conditions. Background was determined by the level of radioactivity in a reaction mixture from which iNOS was omitted. This amount was subtracted from the level detected in the experimental samples. Enzyme activity, i.e. the amount of citrulline formed, was deduced from the specific activity of the [^3 H]arginine.
Purification of tea catechin polyphenols was performed according to Xie et al. (1993). Enzyme preparation and assay were followed as described in the Methods section of Example 2.

Test [1] addresses T2, neuronal nitric oxide synthase (nNOS) (Mus musculus, UniProt Q9Z0J4).
T2 construct: fresh brains from BALB/c mice were homogenized; from tissue; host or cells: brain of BALB/c mice, 100,000 g fraction passed through Sephadex G-100
Description: Citrulline assay for neuronal NOS enzyme activity (mouse brain 100,000 g fraction). Particulars: 0.135 μM arginine, 125 μM tetrahydrobiopterin, read-out: nNOS citrulline formation inhibited by (% compared with control). Type of test: biochemical. The method, then: as §1
Purification of EGCG was performed according to Xie et al. (1993). Neuronal NOS sample preparation and enzyme activity assay were described in the Methods section of Example 2, with the following modifications. For nNOS, fresh brains from BALB/c mice were homogenized in a 5-fold volume of 50 mM Tris-HCl (pH 7.5) that contained 1 mM EDTA, 5 mM 2-mercaptoethanol and then were centrifuged at 100,000 g for 1 hr, and then the sample was passed through the Sephadex G-100 column. For the nNOS enzyme assay, 5 μM flavin mononucleotide, 5 μM flavin adenine dinucleotide, 10 μg/mL calmodulin (Calbiochem) and 1.25 mM DTT were incorporated in the reaction mixture.

Another test concerns iNOS mRNA expression. Description: iNOS gene expression by relative RT-PCR in LPS- and IFNγ-activated mouse peritoneal cells. Type of test: cell-based. Conditions: 4 hr after LPS + IFNγ stimulation, read-out: iNOS mRNA expression reduced to (% of control, iNOS/GAPDH ratio). The method, then: (§2) Non-elicited peritoneal exudate cells were obtained from BALB/c mice (Jackson Laboratories) and were cultured at 10^6 /mL as described by Chan et al. (1995). They were stimulated by the addition of 0.01 μg/mL LPS from Salmonella typhosa (Difco Laboratories) and 10 units/mL of IFNγ. At 4 hr after stimulation, total RNA was isolated with a Purescript RNA isolation kit (Gentra). RT-PCR was performed to determine the level of iNOS gene expression. From each sample, 300 ng of RNA was reverse-transcribed using 100 units MMLV reverse transcriptase, 20 units RNase inhibitor, 0.6 mM dNTP, and 0.4 mM Oligo(dT16) (Promega). Then PCR analyses were performed on the aliquots of the cDNA preparations for detecting iNOS and glyceraldehyse 3-phosphate dehydrogenase (GAPDH) gene expression. The reactions occurred in a 50 μL volume, for 23 cycles, with 10 mM Tris-HCl, pH 8.3, 50 mM KCl, 1.5 mM MgCl2, 0.3 mM dNTP, 2.0 units of Taq DNA polymerase, and 50 pmol of 5' and 3' primers. Murine iNOS and GAPDH 5' and 3' primers were purchased from Clontech and used according to manufactures protocols. The products were then separated on 1.6% agarose gel, stained with ethidium bromide, and the intensity of the bands was determined by scanning (Siebert and Kellogg 1995).

For another test, the system named is NO production. Particulars: LPS- and IFNγ-induced mouse peritoneal cells; Chan et al. 1995; cited from earlier work.
The test system of a further test is GAPDH mRNA expression. The test is described as follows: GAPDH (housekeeping gene) mRNA expression by RT-PCR in activated mouse peritoneal cells. In kind it is cell-based. Particulars: EGCG 1-10 μM, housekeeping gene control. The method, then:
as §2

Setting [2] is: 800 μM compound, 0.270 μM arginine, 125 μM tetrahydrobiopterin, 126 pmol/min iNOS.
Setting [3] is: read-out: citrulline formation inhibited to (% of control).

As for `O=C(O[C@@H]1Cc2c(O)cc(O)cc2O[C@@H]1c1ccc(O)c(O)c1)c1cc(O)c(O)c(O)c1` [ECG, epicatechin-gallate], the remaining activity at 800 µM on Murine iNOS (setting [2]) stood at 68%.

Regarding `Oc1cc(O)c2c(c1)O[C@H](c1cc(O)c(O)c(O)c1)[C@H](O)C2` [EGC, epigallocatechin], at Murine iNOS (setting [2]), the remaining activity at 800 µM turned out to be 96%.

A word on the EC50: it is the concentration needed to bring the measured effect to its halfway point. Higher therefore signals weaker potency. Broadly, the Ki is the dissociation constant of the complex between target and ligand, obtained from inhibition or displacement. Consider `O=C(O[C@@H]1Cc2c(O)cc(O)cc2O[C@@H]1c1cc(O)c(O)c(O)c1)c1cc(O)c(O)c(O)c1` [EGCG, Epigallocatechin-3-gallate], for which, in test [1] (200 μM EGCG), the inhibition at 200 µM amounted to 79%. Moreover, in test [1] (400 μM EGCG), the inhibition at 400 µM amounted to 51%. Moreover, the inhibition at 600 µM in test [1] (600 μM EGCG) turned out to be 56%. For the same compound, at Murine iNOS, the half-maximal effective concentration (EC50) amounted to 150 µM, the Ki came out at 130 µM and the remaining activity at 800 µM worked out at 62%. Further, the “pattern of inhibition with respect to substrate arginine (Dixon plot)” value at Murine iNOS (100-600 μM EGCG, 0.068-0.270 μM arginine) is given as “competitive pattern of inhibition”. The “pattern of inhibition with respect to cofactor tetrahydrobiopterin (Dixon plot)” value on Murine iNOS (100-600 μM EGCG, 12-125 μM tetrahydrobiopterin) is reported as “competitive manner”. Besides, at Murine iNOS (setting [3]), the inhibition at 50 µM is 85%, the inhibition at 250 µM was 40%, the inhibition at 500 µM turned out to be 27% and the inhibition at 750 µM is 14%. Also, in the test on iNOS mRNA expression (1 μM EGCG), the mrna remaining at 1 µM turned out to be 82%. For the same compound, the mrna remaining at 3 µM in the test on iNOS mRNA expression (3 μM EGCG) was determined as 74%. Also, in the test with iNOS mRNA expression (5 μM EGCG), the mrna remaining at 5 µM stood at 41%. Moreover, the mrna remaining at 10 µM with iNOS mRNA expression (10 μM EGCG) is 14%. Besides, in the test with NO production, the “NO production measured by nitrite accumulation in the culture medium” value is reported as “reduces NO production”. Besides, the “reduction in mRNA expression of GAPDH” value in the test on GAPDH mRNA expression is “not observed”.
